Activity calls are given as the source filed them.
What was measured:
[1] = target: T1, Phosphoethanolamine/phosphocholine phosphatase (Homo sapiens, UniProt Q8TCT1); test: SAR assay for compounds that inhibit PHOSPHO1. [Related pubchem assays (depositor defined):AID1545, AID1565, AID1574]
T1 sequence (Q8TCT1 whole entry): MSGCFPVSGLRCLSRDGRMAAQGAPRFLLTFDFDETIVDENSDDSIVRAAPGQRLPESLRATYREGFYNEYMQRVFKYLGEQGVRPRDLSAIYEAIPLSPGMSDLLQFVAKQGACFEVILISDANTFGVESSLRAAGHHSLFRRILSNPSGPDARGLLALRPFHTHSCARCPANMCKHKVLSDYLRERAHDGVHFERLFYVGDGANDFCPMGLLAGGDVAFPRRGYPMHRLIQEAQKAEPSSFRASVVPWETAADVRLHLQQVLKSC

Phosphomannomutase 2 = target: T2, Phosphomannomutase 2 (Homo sapiens, UniProt O15305); test: Counter screen SAR assay for PMM2 inhibitors via a fluorescence intensity assay. [Related pubchem assays (depositor defined):AID1545, AID1574]
T2 sequence (O15305 whole entry): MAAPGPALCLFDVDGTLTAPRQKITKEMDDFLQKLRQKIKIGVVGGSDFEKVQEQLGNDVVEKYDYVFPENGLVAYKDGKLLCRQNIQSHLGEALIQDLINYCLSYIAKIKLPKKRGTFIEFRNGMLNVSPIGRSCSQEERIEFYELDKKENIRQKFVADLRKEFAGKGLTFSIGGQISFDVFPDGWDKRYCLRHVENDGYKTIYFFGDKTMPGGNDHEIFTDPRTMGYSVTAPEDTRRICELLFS

[2] = target: T3, Mannose-6-phosphate isomerase (Homo sapiens, UniProt P34949); test: phosphomannose isomerase inhibition – biochemical, fluorescence intensity, confirmation (AID 1535)
T3 sequence (P34949 whole entry): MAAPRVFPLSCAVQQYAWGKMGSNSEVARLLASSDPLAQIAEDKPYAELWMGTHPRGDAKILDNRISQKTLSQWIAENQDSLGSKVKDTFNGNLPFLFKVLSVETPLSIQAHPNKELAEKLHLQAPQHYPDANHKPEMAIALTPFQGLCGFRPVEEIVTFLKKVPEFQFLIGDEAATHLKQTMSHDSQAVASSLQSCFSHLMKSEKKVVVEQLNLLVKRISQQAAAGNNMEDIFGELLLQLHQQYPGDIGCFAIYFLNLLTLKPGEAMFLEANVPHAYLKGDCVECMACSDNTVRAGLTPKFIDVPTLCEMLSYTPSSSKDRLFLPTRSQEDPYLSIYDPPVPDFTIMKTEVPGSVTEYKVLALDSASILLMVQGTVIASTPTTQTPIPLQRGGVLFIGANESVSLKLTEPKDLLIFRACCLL

[3] = Luminescence Cell-Based Dose Retest to Confirm Inhibitors of Cancer Stem Cells. [Related pubchem assays (depositor defined):AID2717, AID2721]; assay type: functional, Homo sapiens; conditions: Homo sapiens
[4] = viability loss of HMLE_sh_eGFP cells – cell-based, luminescence, counter-screen for HMLE_sh_ECad selective toxicity project, dose response (AID 463074); assay type: functional, Homo sapiens;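 further: HMLE human mammary epithelial cells expressing control shRNA against eGFP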
Phospholipase A2 = Phospholipase A2 (Homo sapiens, UniProt P04054); assay type: functional;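 further: confirmatory dose-response counterscreen on phospholipase A2, testing hits that came from an ultra-high-throughput screen for ATG4B inhibitors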
Cysteine protease ATG4B = target: T4, Cysteine protease ATG4B (Homo sapiens, UniProt Q9Y4P1); assay type: functional;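 further: Fluorescence-based dose-response confirmation assay measuring inhibition of ATG4B activity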
T4 sequence (Q9Y4P1 whole entry): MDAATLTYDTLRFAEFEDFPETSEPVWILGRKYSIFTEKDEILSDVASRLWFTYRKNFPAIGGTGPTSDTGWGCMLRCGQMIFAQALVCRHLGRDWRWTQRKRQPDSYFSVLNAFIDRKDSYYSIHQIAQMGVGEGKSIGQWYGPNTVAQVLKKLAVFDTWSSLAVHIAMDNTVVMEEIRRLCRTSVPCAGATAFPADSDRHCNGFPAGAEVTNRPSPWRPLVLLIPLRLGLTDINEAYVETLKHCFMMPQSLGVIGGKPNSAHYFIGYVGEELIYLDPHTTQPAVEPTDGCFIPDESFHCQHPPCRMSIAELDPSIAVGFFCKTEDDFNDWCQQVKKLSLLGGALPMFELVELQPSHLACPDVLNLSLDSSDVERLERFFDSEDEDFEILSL

[5] = target: T5, Alkaline phosphatase, tissue-nonspecific isozyme (Homo sapiens, UniProt P05186); test: potency against alkaline phosphatase TNAP – biochemical, luminescent, dose response, SAR follow-up (AID 1056)
T5 sequence (P05186 whole entry): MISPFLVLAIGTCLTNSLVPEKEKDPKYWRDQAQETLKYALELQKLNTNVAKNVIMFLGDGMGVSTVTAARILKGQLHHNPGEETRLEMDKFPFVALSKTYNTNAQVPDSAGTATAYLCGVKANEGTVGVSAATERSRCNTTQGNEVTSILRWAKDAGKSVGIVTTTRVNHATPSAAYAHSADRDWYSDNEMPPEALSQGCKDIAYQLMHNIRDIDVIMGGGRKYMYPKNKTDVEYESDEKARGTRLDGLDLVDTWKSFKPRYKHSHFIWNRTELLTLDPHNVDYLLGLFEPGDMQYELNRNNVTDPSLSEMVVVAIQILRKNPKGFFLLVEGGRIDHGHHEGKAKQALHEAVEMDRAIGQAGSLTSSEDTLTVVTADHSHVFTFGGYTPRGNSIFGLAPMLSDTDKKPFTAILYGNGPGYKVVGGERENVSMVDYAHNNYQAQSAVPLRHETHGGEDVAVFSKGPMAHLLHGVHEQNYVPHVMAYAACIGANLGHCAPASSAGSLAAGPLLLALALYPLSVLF

Streptococcus = test: GAS UMAA2166 growth inhibition – luminescence, BacTiterGlo, counter-screen for streptokinase expression inhibitor project, dose response (AID 1915); assay type: functional, organism-based;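 further: potency for reduction of bacterial viability or growth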
[6] = target: T6, Delta-type opioid receptor (Homo sapiens, UniProt P41143); test: HTS Image-Based Screen for Antagonists of the DOR Receptor. [Related pubchem assays (depositor defined):AID1777, AID1785, AID1786, AID2133]; assay type: functional
[7] = target: T6, Delta-type opioid receptor; test: HTS Image-Based Screen for Agonists of the DOR Receptor. [Related pubchem assays (depositor defined):AID1777, AID1786, AID2133]; assay type: functional
Beta-galactosidase = Beta-galactosidase (Escherichia coli, UniProt Q8VNN2); assay type: functional
[8] = target: T7, Kappa-type opioid receptor (Homo sapiens, UniProt P41145); assay type: functional
Streptokinase A = target: T8, Streptokinase A (Streptococcus pyogenes serotype M1, UniProt P10520); test: viability-normalized secreted streptokinase activity reduction – plasminogen activation absorbance, OD405, dose response (AID 1914); assay type: functional, Streptococcus pyogenes M1 GAS;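 further: secreted streptokinase activity via plasminogen activation per viability signal from cell pellet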
T8 sequence (P10520 whole entry): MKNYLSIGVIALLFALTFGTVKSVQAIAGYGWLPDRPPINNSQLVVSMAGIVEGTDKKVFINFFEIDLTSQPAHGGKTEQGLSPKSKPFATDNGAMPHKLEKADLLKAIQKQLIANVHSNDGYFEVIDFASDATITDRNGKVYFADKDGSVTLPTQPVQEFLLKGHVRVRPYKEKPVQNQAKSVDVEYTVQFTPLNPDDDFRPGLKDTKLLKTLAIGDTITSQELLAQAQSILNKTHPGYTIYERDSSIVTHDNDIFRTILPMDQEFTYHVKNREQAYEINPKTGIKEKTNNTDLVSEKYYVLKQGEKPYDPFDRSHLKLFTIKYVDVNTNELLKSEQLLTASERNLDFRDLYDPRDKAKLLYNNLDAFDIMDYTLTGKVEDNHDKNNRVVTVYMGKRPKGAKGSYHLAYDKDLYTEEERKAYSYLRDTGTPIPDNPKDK

[9] = test system: Streptococcus sp. 'group A'; test: Streptococcus pyogenes SK(-)GAS viability under kanamycin – luminescence, BacTiterGlo, confirmation, counter-screen for streptokinase expression inhibitor project, dose response (AID 1900); assay type: functional, organism-based
Mu-type opioid receptor = Mu-type opioid receptor (Homo sapiens, UniProt P35372); test: HTS Image-Based Screen for Agonists of the MOR Receptor. [Related pubchem assays (depositor defined):AID1777, AID1785, AID1786, AID2133]; assay type: functional;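 further: imaging of beta-arrestin GFP recruitment into spots after receptor activation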
[10] = target: T7, Kappa-type opioid receptor; assay type: functional; remark: listed apart in the source
cells [11] = assay type: functional, cell-based
cells [12] = assay type: functional, cell-based; remark: listed apart in the source

T7 sequence (P41145 whole entry): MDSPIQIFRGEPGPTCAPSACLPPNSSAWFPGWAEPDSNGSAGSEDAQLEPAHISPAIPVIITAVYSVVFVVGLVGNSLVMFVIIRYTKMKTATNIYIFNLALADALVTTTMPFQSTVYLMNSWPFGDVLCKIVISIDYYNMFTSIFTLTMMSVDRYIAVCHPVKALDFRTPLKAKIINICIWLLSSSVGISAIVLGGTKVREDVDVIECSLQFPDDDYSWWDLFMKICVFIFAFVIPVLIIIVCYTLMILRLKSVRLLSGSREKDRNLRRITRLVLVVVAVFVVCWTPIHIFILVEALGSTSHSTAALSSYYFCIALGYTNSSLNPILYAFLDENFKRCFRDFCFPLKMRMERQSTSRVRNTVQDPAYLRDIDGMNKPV
Chain of Phospholipase A2 (P04054 whole entry): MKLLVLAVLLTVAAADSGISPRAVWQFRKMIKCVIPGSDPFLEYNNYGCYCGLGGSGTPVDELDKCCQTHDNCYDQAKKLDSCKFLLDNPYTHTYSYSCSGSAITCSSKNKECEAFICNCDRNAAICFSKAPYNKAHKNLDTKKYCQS
T6 sequence (P41143 whole entry): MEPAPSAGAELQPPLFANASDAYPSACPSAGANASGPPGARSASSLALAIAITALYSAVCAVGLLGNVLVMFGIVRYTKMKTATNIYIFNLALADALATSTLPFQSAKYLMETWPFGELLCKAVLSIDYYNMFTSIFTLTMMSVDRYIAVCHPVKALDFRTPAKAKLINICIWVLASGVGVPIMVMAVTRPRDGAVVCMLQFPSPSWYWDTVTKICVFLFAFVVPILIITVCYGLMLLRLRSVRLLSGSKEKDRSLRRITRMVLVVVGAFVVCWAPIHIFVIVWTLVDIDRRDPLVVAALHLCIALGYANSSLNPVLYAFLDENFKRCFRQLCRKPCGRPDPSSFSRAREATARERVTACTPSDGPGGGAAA
Chain of Mu-type opioid receptor (P35372 whole entry): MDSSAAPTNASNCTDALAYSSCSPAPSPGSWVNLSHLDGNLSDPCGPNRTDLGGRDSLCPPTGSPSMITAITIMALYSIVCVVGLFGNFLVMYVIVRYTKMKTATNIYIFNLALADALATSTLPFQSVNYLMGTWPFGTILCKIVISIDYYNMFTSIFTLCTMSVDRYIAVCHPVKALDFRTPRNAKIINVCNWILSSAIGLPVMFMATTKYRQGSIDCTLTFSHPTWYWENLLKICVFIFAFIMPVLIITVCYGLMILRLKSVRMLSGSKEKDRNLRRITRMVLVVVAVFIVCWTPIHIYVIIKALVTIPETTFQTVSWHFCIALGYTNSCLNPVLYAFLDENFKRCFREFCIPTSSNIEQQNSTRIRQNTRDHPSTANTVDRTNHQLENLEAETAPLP
Chain of Beta-galactosidase (Q8VNN2 whole entry): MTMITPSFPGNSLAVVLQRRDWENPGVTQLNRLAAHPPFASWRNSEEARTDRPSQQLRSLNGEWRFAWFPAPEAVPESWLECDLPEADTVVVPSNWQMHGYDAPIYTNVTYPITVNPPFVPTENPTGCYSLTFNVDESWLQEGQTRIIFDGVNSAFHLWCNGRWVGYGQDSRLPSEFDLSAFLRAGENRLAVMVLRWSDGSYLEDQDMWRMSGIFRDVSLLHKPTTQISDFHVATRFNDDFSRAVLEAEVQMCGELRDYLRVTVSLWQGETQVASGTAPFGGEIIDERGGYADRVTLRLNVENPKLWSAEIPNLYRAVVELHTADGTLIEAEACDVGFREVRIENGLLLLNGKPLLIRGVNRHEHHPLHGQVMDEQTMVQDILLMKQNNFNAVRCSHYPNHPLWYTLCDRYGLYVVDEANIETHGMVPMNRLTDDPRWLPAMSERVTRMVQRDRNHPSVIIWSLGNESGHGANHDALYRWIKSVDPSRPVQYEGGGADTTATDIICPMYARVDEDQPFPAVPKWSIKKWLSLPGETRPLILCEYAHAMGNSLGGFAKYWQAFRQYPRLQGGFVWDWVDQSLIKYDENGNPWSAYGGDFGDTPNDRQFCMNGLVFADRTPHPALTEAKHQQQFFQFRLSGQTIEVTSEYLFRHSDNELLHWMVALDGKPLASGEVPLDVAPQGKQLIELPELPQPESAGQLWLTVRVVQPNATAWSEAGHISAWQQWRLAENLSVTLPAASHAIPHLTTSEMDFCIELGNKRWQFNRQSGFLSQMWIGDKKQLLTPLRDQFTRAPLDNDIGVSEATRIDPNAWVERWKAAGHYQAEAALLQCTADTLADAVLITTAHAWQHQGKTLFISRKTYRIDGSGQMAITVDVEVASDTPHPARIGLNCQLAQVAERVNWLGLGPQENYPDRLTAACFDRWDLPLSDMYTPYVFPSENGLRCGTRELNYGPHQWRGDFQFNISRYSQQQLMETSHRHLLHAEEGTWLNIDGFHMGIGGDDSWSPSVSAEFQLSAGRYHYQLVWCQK

Q: For `O=c1c2ccc(F)cc2sn1-c1ccc(Cl)c(Cl)c1`, which IC50 [1] is on record?
A: > 100 µM (inactive)

Q: What about the IC50 (Phosphomannomutase 2) of the same compound?
A: > 100 µM (inactive)

Q: What about the IC50 [2] of the same compound?
A: > 50 µM (inactive)

Q: For `COc1ccc(-c2cc([C@H]3[C@H]4C=CC[C@@H](C)[C@@H]4C(=O)N3Cc3ccccc3)ccc2F)cc1`, which AC50 [3] is on record?
A: 2.76 µM (active)

Q: And the AC50 [4]?
A: 22 µM (active)

Q: For `Fc1ccc(CCN=C(S)Nc2ccc(F)c(Cl)c2)cc1`, which IC50 (Phospholipase A2) is on record?
A: 8.38 µM (active)

Q: What about the IC50 (Cysteine protease ATG4B) of the same compound?
A: 12.4 µM (active)

Q: What does the source list for `CCOC(=O)c1ccc(-n2sc3ccccc3c2=O)cc1`?
A: IC50 [1]: 1.24 µM (inactive); IC50 [5]: > 100 µM (inactive); IC50 (Phosphomannomutase 2): > 100 µM (inactive); IC50 [2]: 23.6 µM (active)

Q: Which AC50 [3] does the source give for `Cc1onc(-c2ccccc2)c1C(=O)Nc1sc2c(c1C#N)CCC(C)C2` (stereo not drawn) here?
A: 1.12 µM (active)

Q: What about the AC50 [4] of the same compound?
A: 26.3 µM (active)

Q: Which results are given for `CCCc1nc2oc3c(Cl)ncnc3c2c2c1CCCC2`?
A: EC50 (Streptococcus): > 150 µM (not active); IC50 [6]: > 32 µM (inactive); EC50 [7]: > 32 µM (inactive); EC50 (Beta-galactosidase): > 31.5 µM (inactive); IC50 [8]: 4.64 µM (active); EC50 (Streptokinase A): > 150 µM (not active); EC50 [9]: > 150 µM (not active); EC50 (Mu-type opioid receptor): > 32 µM (inactive); IC50 [10]: > 32 µM

Q: Which AC50 [3] does the source give for `OC(COc1ccc(CNCCc2ccccc2F)cc1)CN1CCCCC1` (stereo not drawn) here?
A: > 195 µM (inactive)

Q: And the AC50 [4]?
A: 33.9 µM (active)

Q: And the EC50 (cells [11])?
A: > 29.9 µM (inactive)

Q: What about the IC50 (cells [12]) of the same compound?
A: > 29.9 µM (inactive)

Q: For `Cc1cc(C)nc(SCc2ccc(C(=O)N/N=C3\CC(C)CC(C)(C)C3)cc2)n1` (stereo not drawn), which IC50 (Phospholipase A2) is on record?
A: 17.9 µM (active)

Q: And the IC50 (Cysteine protease ATG4B)?
A: 22.7 µM (inactive)

Reference: ChEMBL document CHEMBL1201862, “PubChem BioAssay data set” (2004)
